Measured values from US9394305B2, “Substituted imidazo[1,2-a]pyridine compounds as tropomyosin receptor kinase a (TrkA) inhibitors” (Dr. Reddy's Laboratories Ltd., priority 2014, dated 2016).
Like-named read-outs stand apart in the source and are kept apart here.

Target: T1, TrkA kinase (Homo sapiens, UniProt P04629)
T1 construct: purchased Upstate, USA
Assay: In vitro TrkA inhibitory activity using TR-FRET assay
Type: biochemical
Procedure: Compounds were screened in the TR-FRET assay with TrkA kinase. 5 ng of TrkA [Upstate, USA] kinase was used for assay. The compound was incubated with the kinase for 30 minutes at 20-35° C. After the incubation, substrate mix [40 nM Ultra light poly GT (Perkin Elmer, USA) and 500 μM ATP] was added. The above reaction was stopped by the addition of 40 mM EDTA after 30 minutes. The Eu-labelled antiphospho-tyrosine antibody [Perkin Elmer, USA] was added at 0.5 nM and the fluorescence emission at 615 nm/665 nm [excitation at 340 nm] was measured. The compounds were initially screened at 100 nM, 1 μM and 10 μM concentrations. The potent compounds with >25% inhibition at 1 μM of TrkA were taken for the full dose response studies. The final DMSO concentration in the assay was […]. For IC50 determination, ⅓^rd serial dilution was made from the 20 mM DMSO stock solution. 2 μl of these were transferred to the test wells containing 20 μl reaction mixture [Total reaction volume 22 μl]. The fluorescence was measured in Perkin Elmer Wallac 1420 Multilabel Counter Victor 3. The IC50 was determined by fitting the dose response data to a sigmoidal curve fitting equation using GraphPad Prism software version 5.

[1] = 5 ng TrkA, 500 μM ATP, values given as bins, read-out: TrkA inhibition in-vitro IC50
[2] = 5 ng TrkA, 500 μM ATP, values given as bins, read-out: TrkA inhibitory activity in-vitro IC50

T1 sequence (P04629 33-796): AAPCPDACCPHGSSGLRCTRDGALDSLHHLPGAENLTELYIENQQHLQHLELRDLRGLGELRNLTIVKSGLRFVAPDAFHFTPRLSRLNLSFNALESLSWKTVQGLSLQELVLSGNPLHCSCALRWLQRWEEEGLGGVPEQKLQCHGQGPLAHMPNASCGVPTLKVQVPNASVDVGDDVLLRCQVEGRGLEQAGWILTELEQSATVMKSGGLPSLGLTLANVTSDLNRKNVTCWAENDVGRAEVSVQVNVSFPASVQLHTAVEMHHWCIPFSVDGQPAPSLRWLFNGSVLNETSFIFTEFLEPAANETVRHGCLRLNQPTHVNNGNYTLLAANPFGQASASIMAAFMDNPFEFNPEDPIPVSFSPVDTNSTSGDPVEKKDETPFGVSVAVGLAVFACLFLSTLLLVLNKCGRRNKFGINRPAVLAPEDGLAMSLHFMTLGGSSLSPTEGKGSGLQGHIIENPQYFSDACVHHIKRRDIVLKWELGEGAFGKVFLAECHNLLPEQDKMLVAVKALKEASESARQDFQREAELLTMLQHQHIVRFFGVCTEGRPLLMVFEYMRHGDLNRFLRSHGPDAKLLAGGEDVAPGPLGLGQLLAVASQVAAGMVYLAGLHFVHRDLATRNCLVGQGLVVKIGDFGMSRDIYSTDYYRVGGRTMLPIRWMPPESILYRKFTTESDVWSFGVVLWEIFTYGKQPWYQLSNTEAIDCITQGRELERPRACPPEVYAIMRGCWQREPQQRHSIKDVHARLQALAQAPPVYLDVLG

Row | SMILES | IC50 [1] | further results
1 | CN(c1nccs1)S(=O)(=O)NC(=O)c1cnc2ccc(N3CCC[C@@H]3c3cc(F)ccc3F)cn12 [Example 48, (R)-6-(2-(2,5-difluorophenyl)pyrrolidin-1-yl)-N-(N-methyl-N-(thiazol-2-yl)sulfamoyl)imidazo[1,2-a]pyridine-3-carboxamide] | ≤ 50 nM | 
2 | CN(c1ccn(C)n1)S(=O)(=O)NC(=O)c1cnc2ccc(N3C[C@@H](F)C[C@@H]3c3cc(F)ccc3O[C@@H]3CCOC3)cn12 [Example 92, 6-((2R,4S)-4-fluoro-2-(5-fluoro-2-(((R)-tetrahydrofuran-3-yl)oxy)phenyl)pyrrolidin-1-yl)-N—(N-methyl-N-(1-methyl-1H-pyrazol-3-yl)sulfamoyl)imidazo[1,2-a]pyridine-3-carboxamide] | ≤ 50 nM | 
3 | CN(CC(C)(C)F)S(=O)(=O)NC(=O)c1cnc2ccc(N3C[C@@H](F)C[C@@H]3c3cc(F)ccc3OC3CCOCC3)cn12 [Example 110, 6-((2R,4S)-4-fluoro-2-(5-fluoro-2-((tetrahydro-2H-pyran-4-yl)oxy)phenyl)pyrrolidin-1-yl)-N—(N-(2-fluoro-2-methylpropyl)-N-methylsulfamoyl)imidazo[1,2-a]pyridine-3-carboxamide] | ≤ 50 nM | 
4 | CCN(C)S(=O)(=O)NC(=O)c1cnc2ccc(N3C[C@@H](F)C[C@@H]3c3cc(F)ccc3OCCF)cn12 [Example 57, N-(N-ethyl-N-methylsulfamoyl)-6-((2R,4S)-4-fluoro-2-(5-fluoro-2-(2-fluoroethoxy)phenyl)pyrrolidin-1-yl)imidazo[1,2-a]pyridine-3-carboxamide] | ≤ 50 nM | 
5 | CCN(C)S(=O)(=O)NC(=O)c1cnc2ccc(N3CCCC3c3cc(F)cc4c3OCCO4)cn12 (single isomer, unassigned) [Example 72, N-(N-ethyl-N-methylsulfamoyl)-6-(2-(7-fluoro-2,3-dihydrobenzo [b][1,4]dioxin-5-yl)pyrrolidin-1-yl)imidazo[1,2-a]pyridine-3-carboxamide] | 100 to 500 nM | 
6 | O=C(NS(=O)(=O)c1ccc(N2CC[C@H](O)C2)cc1)c1cnc2ccc(N3CCCCC3c3cc(F)ccc3F)cn12 (stereo partly drawn) [Example 49, 6-(2-(2,5-difluorophenyl)piperidin-1-yl)-N-((4-((S)-3-hydroxypyrrolidin-1-yl)phenyl)sulfonyl)imidazo[1,2-a]pyridine-3-carboxamide] |  | IC50 [2]: 1000 to 10000 nM
7 | O=C(NN1CCCCC1)c1cnc2ccc(N3CCC[C@@H]3c3cc(F)ccc3F)cn12 [Example 27, (R)-6-(2-(2,5-difluorophenyl)pyrrolidin-1-yl)-N-(piperidin-1-yl)imidazo[1,2-a]pyridine-3-carboxamide] |  | IC50 (bin with mixed units (lower bound nM, upper bound μM), read-out: TrkA inhibitory activity in-vitro IC50): 500 to 1000 nM
8 | CN1CCN(C(=O)c2cnc3ccc(N4CCCC4c4cc(F)ccc4F)cn23)CC1 (stereo not drawn) [Example 9, (6-(2-(2,5-difluorophenyl)pyrrolidin-1-yl)imidazo[1,2-a]pyridin-3-yl)(4-methylpiperazin-1-yl)methanone] |  | IC50 [2]: 1000 to 10000 nM
9 | CCCN(C)S(=O)(=O)NC(=O)c1cnc2ccc(N3C[C@@H](F)C[C@@H]3c3cc(F)ccc3OC3CCOCC3)cn12 [Example 88, 6-((2R,4S)-4-fluoro-2-(5-fluoro-2-((tetrahydro-2H-pyran-4-yl)oxy)phenyl)pyrrolidin-1-yl)-N—(N-methyl-N-propylsulfamoyl)imidazo[1,2-a]pyridine-3-carboxamide] | ≤ 50 nM | 
10 | CCN(C)S(=O)(=O)NC(=O)c1cnc2ccc(N3CCCCC3c3cc(F)ccc3F)cn12 (single isomer, unassigned) [Example 70, 6-(2-(2,5-difluorophenyl)piperidin-1-yl)-N-(N-ethyl-N-methyl-sulfamoyl)imidazo[1,2-a]pyridine-3-carboxamide] |  | IC50 [2]: 1000 to 10000 nM
11 | CN(c1ccn(C)n1)S(=O)(=O)NC(=O)c1cnc2ccc(N3CCC[C@@H]3c3cc(F)ccc3F)cn12 [Example 90, (R)-6-(2-(2,5-difluorophenyl)pyrrolidin-1-yl)-N—(N-methyl-N-(1-methyl-1H-pyrazol-3-yl)sulfamoyl)imidazo[1,2-a]pyridine-3-carboxamide] | ≤ 50 nM | 
12 | CCN(C)S(=O)(=O)NC(=O)c1cnc2ccc(N3CCCC3c3cc(F)ccc3O[C@@H]3CCOC3)cn12 (single isomer, unassigned) [Example 63] | ≤ 50 nM | 

Continued, in another order:

Row | IC50 [1] | SMILES | further results
13 | 100 to 500 nM | CC(C)(C)S(=O)(=O)NC(=O)c1cnc2ccc(N3CCC[C@@H]3c3cc(F)ccc3F)cn12 [Example 31, (R)—N-(tert-butylsulfonyl)-6-(2-(2,5-difluorophenyl)pyrrolidin-1-yl)imidazo[1,2-a]pyridine-3-carboxamide] | 
14 | 50 to 100 nM | CC(C)(C)S(=O)(=O)NC(=O)c1cnc2ccc(N3C[C@@H](F)C[C@@H]3c3cc(F)ccc3OC3CCOCC3)cn12 [Example 94, N-(tert-butylsulfonyl)-6-((2R,4S)-4-fluoro-2-(5-fluoro-2-((tetrahydro-2H-pyran-4-yl)oxy)phenyl)pyrrolidin-1-yl)imidazo[1,2-a]pyridine-3-carboxamide] | 
15 | ≤ 50 nM | CN(C)S(=O)(=O)NC(=O)c1cnc2ccc(N3CCC[C@@H]3c3cc(F)ccc3O[C@@H]3CCOC3)cn12 [Example 106, N—(N,N-dimethylsulfamoyl)-6-((R)-2-(5-fluoro-2-(((R)-tetrahydrofuran-3-yl)oxy)phenyl)pyrrolidin-1-yl)imidazo[1,2-a]pyridine-3-carboxamide] | 
16 | ≤ 50 nM | CC(C)(C)S(=O)(=O)NC(=O)c1cnc2ccc(N3C[C@@H](F)C[C@@H]3c3cc(F)ccc3O[C@@H]3CCOC3)cn12 [Example 59, N-(tert-butylsulfonyl)-6-((2R,4S)-4-fluoro-2-(5-fluoro-2-(((R)-tetrahydrofuran-3-yl)oxy)phenyl)pyrrolidin-1-yl)imidazo[1,2-a]pyridine-3-carboxamide] | 
17 | 100 to 500 nM | CN(C)C(=O)c1cnc2ccc(N3CCCC3c3cc(F)ccc3F)cn12 (stereo not drawn) [Example 8, 6-(2-(2,5-difluorophenyl)pyrrolidin-1-yl)-N,N-dimethylimidazo[1,2-a]pyridine-3-carboxamide] | 
18 | ≤ 50 nM | CN(c1ccn(C)n1)S(=O)(=O)NC(=O)c1cnc2ccc(N3C[C@@H](F)C[C@@H]3c3cc(F)ccc3OC3CCOCC3)cn12 [Example 96, 6-((2R,4S)-4-fluoro-2-(5-fluoro-2-((tetrahydro-2H-pyran-4-yl)oxy)phenyl)pyrrolidin-1-yl)-N—(N-methyl-N-(1-methyl-1H-pyrazol-3-yl)sulfamoyl)imidazo[1,2-a]pyridine-3-carboxamide] | 
19 | ≤ 50 nM | CCN(CCF)S(=O)(=O)NC(=O)c1cnc2ccc(N3C[C@@H](F)C[C@@H]3c3cc(F)ccc3O[C@@H]3CCOC3)cn12 [Example 75, N—(N-ethyl-N-(2-fluoroethyl)sulfamoyl)-6-((2R,4S)-4-fluoro-2-(5-fluoro-2-(((R)-tetrahydrofuran-3-yl)oxy)phenyl)pyrrolidin-1-yl)imidazo[1,2-a]pyridine-3-carboxamide] | 
20 | ≤ 50 nM | CN(CC(F)(F)F)S(=O)(=O)NC(=O)c1cnc2ccc(N3CCC[C@@H]3c3cc(F)ccc3F)cn12 [Example 41, (R)-6-(2-(2,5-difluorophenyl)pyrrolidin-1-yl)-N-(N-methyl-N-(2,2,2-trifluoroethyl)sulfamoyl)imidazo[1,2-a]pyridine-3-carboxamide] | 
21 | 50 to 100 nM | O=C(NC[C@H](O)CO)c1cnc2ccc(N3CCC[C@@H]3c3cc(F)ccc3F)cn12 [Example 25, 6-((R)-2-(2,5-difluorophenyl)pyrrolidin-1-yl)-N—((S)-2,3-dihydroxypropyl)imidazo[1,2-a]pyridine-3-carboxamide] | 
